Literature values as cited in publication PMC3923778 (PLoS Currents, 2014).

Test system: HD mouse models
Parameters: method as in PMID 19281846, PMID 20923867, PMID 19291221, PMID 17184995
Settings: ref [5], [7], [14], [15]; cited from earlier work

Compound | disease progression in HD mouse models
COc1ccc(C2CNC(=O)C2)cc1OC1CCCC1 (centres unmarked) [rolipram] | significantly delay disease progression
TP-10 | significantly delay disease progression
